Reference: patent US7709259B2, “Enhancement of mammalian embryo development” (Board of Regents of the University of Texas System, priority 2003, dated 2010)
Entries after “also recorded” stand apart in the source; their conditions may differ.

Assays:
mouse embryos [1] = experiment: Complete hatching of cultured two-cell mouse embryos; type: cell-based; settings: for effect on complete hatching: 0.1 μM
Method: Mice were kept under controlled temperature, humidity, and light cycle (12 hour light/dark cycle) conditions with free access to water and food. Three-week old C57B1/6 female mice were purchased from Harlan (Indianapolis, Ind., USA). Eight-week old C3H male mice were purchased initially from Harlan and later from The Jackson Laboratory (Bar Harbor, Me., USA). Superovulation in the female mice was achieved by intraperitoneal injection of pregnant mare serum gonadotropin (5 IU), followed by human chorionic gonadotropin (hCG, 5 IU) 46 hours later. After receiving hCG, each female mouse was paired with one fertile male mouse. Forty-eight hours later, two-cell embryos were harvested from the oviduct into α-MEM media supplemented with 25 mM HEPES and 1% BSA (Irvine Scientific).
Embryos (17-20 per group) were cultured at 37° C. under 5% CO2 in a four-well dish (Nalge Nunc International, Naperville, Ill., USA) containing 600 μl of medium in each well. The HTF and the α-MEM media were used sequentially during the 96-hour period to meet the changing nutritional requirements of the cleaving embryos [Gardner, 1998]. The HTF medium (SAGE Biopharma) was used during the first 48 hours, and the α-MEM medium (Irvine Scientific), with Earle's Salts and 2 mM glutamine, was used during the second 48 hours. The experimental embryos received Iloprost in water and the control embryos received an equal amount of water. […] After 96-hour culture, each embryo was examined for the presence of the zona pellucida. Embryos completely free of the zona pellucida were counted as having completely hatched. The rate of complete hatching was determined by dividing the number of completely hatched embryos by the total number of embryos. Complete hatching of embryos was chosen as an endpoint instead of blastocyst formation or embryo hatching because the latter two markers are not correlated with establishment of a viable pregnancy [Lane, 1997].
Student's t-test or one-way analysis of variance followed by Dunnett test were used where appropriate. A p<0.05 was considered statistically significant. Construction of dose response curves and calculation of ED50 values (with the Hill slope set at 1.0) were completed with the GraphPad Prism® software (GraphPad Prism Software Inc., San Diego, Calif., USA).

[2] = test system: intact mouse embryos (blastocysts); experiment: Whole embryo radioligand binding assay (3H-Iloprost); settings: 0.1 μM 3H-Iloprost, with or without 5 μM unlabeled Iloprost, 116 blastocysts
Method: Analysis of the binding of ^3H-Iloprost to blastocysts was performed as previously described [Arbab, 2002] with slight modification. Two hundred thirty-two hatched and hatching blastocysts were washed three times in binding buffer (10 mM MnCl2 in 10 mM HEPES, pH 7.4) and then transferred to 100 μl of binding buffer with or without unlabeled Iloprost (5 μM). The reaction was started by adding an equal amount of binding buffer containing ^3H-Iloprost (200 nM, specific activity 11.0 Ci/mmol, Amersham Biosciences) and incubating for 60 min at room temperature. The reaction was terminated by transferring the blastocysts to 2 ml of ice-cold wash buffer (0.01% BSA in 10 mM HEPES, pH 7.4). The buffer and the blastocysts were filtered through glass fiber filters (Whatman GF/C 2.4 cm) and the filters were washed three times with 2 ml of wash buffer. The filters were dried in an oven before the radioactivity was determined by scintillation counting with 5 ml of scintillation fluid.

mouse embryos [3] = experiment: Developmental stage of cultured embryos at the time of transfer; type: cell-based
Method: (§1) Mouse embryos were harvested and cultured as described above, and subsequently published by the present inventor (Huang et al., 2003). Briefly, two-cell embryos ([…]) were harvested from super-ovulated, three-week old C57B1/6 female mice 42 hours after hCG injection. The embryos (14 per group) were cultured at 37° C. under 5% CO2 in four-well dish (Nalge Nunc International, Naperville, Ill., USA) each containing 600 μl HTF media (SAGE Biopharma, Bedminster, N.J., USA). The experimental embryos received Iloprost (1 μM, Caymen Chemical, Ann Arbor, Mich., USA) in water and the control embryos, an equal amount of water. In either case, the volume of water was less than 0.1% of the culture media.
(§2) Embryo transfer was performed on 2.5 day of pseudopregnancy under a dissecting microscope (Olympus SZ-PT). Surgical anesthesia was obtained through intraperitoneal injection of ketamine (200 mg/Kg) and xylazine (10 mg/Kg) (both from Burns Vet Supply Inc. TX, USA). Each uterine horn was accessed via a 2-cm flank incision. With the proximal oviduct held by a pair of forceps, an opening was created at the distal end of the uterine horn on the anti-mesenteric side with a 30 gauge needle. The opening permits the entry of transfer pipette which has an inner diameter of 135 μm (MidAtlantic Diagnostics, Inc. NJ, USA). Up to seven embryos in 0.8 μl of transfer media (α MEM with 25 mM HEPES and 1% BSA) were transferred to each horn. After each transfer, contents of the pipette were examined under a stereo microscope to identify retained embryos. The flank incision was closed with 9 mm metallic clips (Clay Adams, Parsippany, N.J., USA). To avoid mixing of control and experimental embryos due to embryo migration from one horn to the other (personal communication with Dr. Andreas Zimmer, University of Bonn, Germany), each gestational carrier received either control or experimental embryos. To maintain consistent transfer techniques, the embryo transfer was performed according to the same protocol and by one individual, who was blinded to the treatment the embryos being placed received. To ensure that both groups benefited equally from the experience gained over the course of the study (˜6 months), the embryos were assigned treatments (control or Iloprost) in blocks of four.

mouse embryos [4] = experiment: Implantation rate 72 hours after transfer of cultured embryos to gestational carriers; type: in vivo
Method: as §1
The day after the embryo donors received hCG, vaginal smears were obtained from potential gestational carriers (eight week old C3B6F1 female mice) to determine the stage of estrus cycle. […]
Seventy-two hours after embryo transfer, implantation was determined based on a previously described method with some modifications (Paria et al., 1993). […] Discrete blue bands (indicated by *) encircling the uterine horns were counted (FIG. 6A). […] The uterine horns were then opened and the gestation sacs counted (FIG. 6B). The implantation rate was expressed as the number of gestation sacs per embryo transferred. […]

mouse embryos [5] = experiment: Live birth rate, implantation rate and weights of pups and placentae 14 days after embryo transfer; type: in vivo
Method: as §1
The day after the embryo donors received hCG, vaginal smears were obtained from potential gestational carriers (eight week old C3B6F1 female mice) to determine the stage of estrus cycle. Those in estrus were paired with vasectomized ICR males (Harlan) and checked for vaginal plugs on the following morning. Those with plugs were designated to be 0.5 day pseudopregnant.
as §2
In order to count and weigh the pups accurately, we sacrificed gestational carriers 14 days after embryo transfer (16.5 days of pregnancy or two days before natural birth). After euthanasia, the number of live pups was counted and the weight of individual pup and placenta was determined. All pups were examined for gross anomalies. The number of empty gestation sacs was also counted in order to determine the implantation rate. The live birth rate was expressed as the number of live pups per embryo transferred; the implantation rate was expressed as the number of sacs, with or without live pups, per embryo transferred.
The Fisher's exact test was used to compare the rates; the Student's t-test was used to compare the weights. A p<0.05 was considered as statistically significant. The GraphPad Instat® software (GraphPad Software Inc., San Diego, Calif., USA) was used for statistical analysis.

[6] = test system: human embryos (frozen zygotes); experiment: Blastocyst formation study with frozen human zygotes; type: cell-based; settings: Frozen Zygote, 0.1 μM
Method: (§3) With the patients' written instructions, 101 frozen zygotes from 14 couples were used for the blastocyst formation study. The zygotes had been frozen during the period of January, 1993 to November, 2003. After overnight culture, only those embryos that had developed to 2-cell stage were used for further study. For each patient, those 2-cell stage embryos were split into a control pool or an experimental pool. All embryos were cultured in Gobal medium (a modified KSOM medium from IVF online) for 5 days with change medium at 2.5 day. The experimental group was supplemented with 0.1 μM of Iloprost (Cayman Chemical, Ann Arbor, Mich.). The control group was supplemented with vehicle (0.000001% DMSO). Chi-Square test were used to compare the number of blastocyst formed. The quality (size, inner cell mass, trophectoderm) of blastocysts was analyzed by non-parametric Wilcoxon Rank Sum Test. The statistical significance was defined at P<0.05. Another 52 donated frozen blastocysts, from 9 couples, were used for short term study. Forty-five thawed blastocysts were recovered. Those blastocysts were immediately cultured with or without Iloprost. The re-expansion of blastocoel was checked 18 hours later. The analysis of outcome was the same as the analysis for the frozen zygotes study.

human frozen blastocysts = experiment: Short term study with thawed frozen human blastocysts; type: cell-based
Method: as §3

rabbits = settings: Iloprost given throughout the gestation period; cited from earlier work
monkeys = settings: Iloprost given throughout the gestation period; cited from earlier work
rats = settings: Iloprost given throughout the gestation period; cited from earlier work
[7] = 1 μM in HTF media, 81 embryos transferred

Structure (SMILES): CC#CCC(C)[C@H](O)/C=C/[C@@H]1[C@H]2C/C(=C/CCCC(=O)O)C[C@H]2C[C@H]1O (stereo partly shown) [Iloprost]
- effect on complete hatching (mouse embryos [1]; exposure 0-72 hours after harvest): same rates of complete hatching as did 0-96 hours exposure
- effect on complete hatching (mouse embryos [1]; exposure 24-42 hours (eight-cell embryos to morulae)): ensured enhanced hatching
- effect on complete hatching (mouse embryos [1]; exposure 24-72 hours after harvest): same rates of complete hatching as did 0-96 hours exposure
- effect on complete hatching (mouse embryos [1]; exposure 42-72 hours (morulae to early blastocysts)): ensured enhanced hatching
- effect on complete hatching (mouse embryos [1]; exposure during the first 24 hours of culture (two-cell to eight-cell)): did not enhance hatching
- rate of complete hatching (mean±S.D.) (mouse embryos [1]; 1 μM, maximum augmentation, 96 hours, n=3, control 49±14%): 81±7%
- concentration at which effects on complete hatching were statistically significant (mouse embryos [1]; 96 hour culture): ≥ 0.1 µM
- EC50 (mouse embryos [1]; Mus musculus, 96 h, two-cell mouse embryos cultured 96 hours with 1 nM to 10 μM, Hill slope set at 1.0, read-out: ED50 for enhancement of complete hatching): 6.7 nM
- 3H-Iloprost specifically bound [2]: approximately 3.04 fmol
- Degenerated (number of embryos at transfer) (mouse embryos [3]; [7]): 0
- Hatching Blastocyst (number of embryos at transfer) (mouse embryos [3]; [7]): 2
- Morula (number of embryos at transfer) (mouse embryos [3]; [7]): 49
- Early Blastocyst (number of embryos at transfer) (mouse embryos [3]; 1 μM, 81 embryos transferred, blastocoele cavity <49% of the embryo): 8
- Late Blastocyst (number of embryos at transfer) (mouse embryos [3]; 1 μM, 81 embryos transferred, blastocoele cavity ≧50% of the embryo): 22
- embryos at the morula stage at the time of transfer (mouse embryos [3]; experimental and control embryos): approximately 70%
- Number of gestation sacs (mouse embryos [4]; 72 hours after transfer of 81 embryos cultured with 1 μM, control 35): 62
- implantation rate (gestation sacs per embryo transferred) (mouse embryos [4]; 72 hours after transfer, control 42%): 76%
- Pup weight (mean ± S.D.) (mouse embryos [5]; 14 days after transfer (16.5 days of pregnancy), control 0.788 ± 0.151): 0.772 ± 0.124 gm
- Total number of live pups (mouse embryos [5]; 14 days after transfer of 415 embryos to 31 carriers, control 115): 149
- Placental weight (mean ± S.D.) (mouse embryos [5]; 14 days after transfer, control 0.166 ± 0.037): 0.166 ± 0.003 gm
- live birth rate (live pups per embryo transferred) (mouse embryos [5]; 14 days after transfer, control 28%): 36%
- implantation rate (sacs with or without live pups per embryo transferred) (mouse embryos [5]; 14 days after transfer, control 46%): 59%
- gross anomalies of pups (mouse embryos [5]; embryos exposed during the pre-implantation period, live pups examined): no gross anomalies; also recorded: no digit reduction or other anomalies
- blastocysts formed / embryos ([6]; 5 days culture, control 11/26): (18/26)
- Blastocyst formation rate ([6]; 5 days culture, control 42%): 69%
- ICM (coding A = 3, B = 2, C = 1) ([6]; inner cell mass, control 0.50): 1.42
- Size (score 1-6) ([6]; morula or degenerated = 0, control 1.42): 3.04
- TRO (coding A = 3, B = 2, C = 1) ([6]; trophectoderm, control 0.46): 1.31
- TRO (coding A = 3, B = 2, C = 1) (human frozen blastocysts; Frozen blastocyst, 18 hours, control 0.68): 0.78
- ICM (coding A = 3, B = 2, C = 1) (human frozen blastocysts; Frozen blastocyst, 18 hours, control 0.72): 0.86
- Size (score 1-6) (human frozen blastocysts; Frozen blastocyst, 18 hours, control 1.45): 1.47
- blastocysts / thawed blastocysts (human frozen blastocysts; Frozen blastocyst, 18 hours, control 11/22): (11/23)
- Blastocyst formate rate (human frozen blastocysts; re-expansion of blastocoel checked 18 hours after thaw, control 50%): 48%
- embryonic and fetal development (rabbits): not affected
- embryonic and fetal development (monkeys): not affected
- embryonic and fetal development (rats): digit reduction

Structure (SMILES): CCCCC[C@H](O)/C=C/[C@H]1[C@H](O)CC(=O)[C@@H]1C/C=C\CCCC(=O)O [PGE2, prostaglandin E2]
- effect on complete hatching of cultured mouse embryos (mouse embryos [1]; preliminary data): enhanced the complete hatching
